The source of these data is patent US20080210905A1, “ORGANIC-ELECTROLUMINESCENCE-MATERIAL-CONTAINING SOLUTION, METHOD FOR SYNTHESIZING ORGANIC ELECTROLUMINESCENCE MATERIAL, COMPOUND SYNTHESIZED BY THE METHOD, METHOD FOR FORMING THIN FILM OF ORGANIC ELECTROLUMINESCENCE MATERIAL, THIN FILM OF ORGANIC ELECTROLUMINESCENCE MATERIAL AND ORGANIC …” (Idemitsu Kosan Co., Ltd., priority 2006, published 2008).

A short description of series [1]: Solubility evaluation: compound stirred in toluene, visual check for insoluble matter. The series is classed as physicochemical. The conditions noted are these: for Presence of insoluble matter: 0.01 g of anthracene compound and 1 g of toluene, stirred, visual check; for solubility in toluene: concluded from visual check of 0.01 g compound in 1 g toluene. The source says:
In order to evaluate a relationship between the soluble portion B and the solubility, how the solubility was changed depending on the bonding number U of the solubility portion B was examined.
As the compound, an anthracene compound as represented by the following formula was used.
A solubility portion B of the compound was structured as represented by the formula (3), and the bonding number of the solubility portion is represented by (a).
With the above structure, compounds respectively having bonding numbers (a) of 1, 2, 3 and 6 were synthesized.
Then, 0.01 g of the anthracene compound and 1 g of toluene were put into a glass bottle to be stirred.
Whether or not any insoluble matter was present in the solution was observed by a visual check.
In order to evaluate a relationship between unit(s) structuring the soluble portion B and the solubility, how the solubility was changed depending on the structure of the solubility portion B was examined.
Compounds used in the examination were AN-1, AN-3, AN-4 and an-1.
For evaluation of the solubility, as in the solubility evaluation 1, 0.01 g of the anthracene compound and 1 g of toluene were put into a glass bottle to be stirred. Then, whether or not any insoluble matter was present in the solution was observed by a visual check.

Series [2] is described as follows: Solubility of compound (a) in toluene, evaluated in advance. The series is classed as physicochemical.

`c1ccc(-c2ccc(-c3cccc(-c4cccc(-c5cccc(-c6cccc(-c7cccc(-c8c9ccccc9c(-c9ccc%10ccccc%10c9)c9ccccc89)c7)c6)c5)c4)c3)cc2)cc1` [AN-4]: in series [1], the “Presence of insoluble matter” value is recorded as “no insoluble matter present” and the solubility in toluene is given as no less than 1 wt %.
In the case of `c1ccc(-c2cccc(-c3ccc(-c4ccc(-c5cccc(-c6cccc(-c7cccc(-c8c9ccccc9c(-c9ccc%10ccccc%10c9)c9ccccc89)c7)c6)c5)cc4)cc3)c2)cc1` [AN-3], in series [1], the “Presence of insoluble matter” value is given as “no insoluble matter present” and the solubility in toluene is on record as no less than 1 wt %.
Regarding `c1ccc(-c2ccccc2-c2ccc3c(-c4ccccc4)c4ccccc4c(-c4ccccc4)c3c2)cc1` [compound (a)], the solubility in toluene in series [2] was 10 wt %.
